# Measurements: patent US20080138280A1, “Composition and Methods For Inhibiting Cell Survival” (The Cleveland Clinic Foundation, priority 2003, published 2008)
# Tests used:
# A375 melanoma xenografts = test: Growth of subcutaneous A375 xenografts in nude mice; type: in vivo
# Source text: In vivo experiments. Please see FIG. 2. The Institutional Animal Care and Use Committee at the Cleveland Clinic Foundation approved all procedures for animal experimentation. Five week-old NCR male athymic nude homozygous (nu/nu) mice (Taconic, Germantown, N.Y.) were inoculated with A375 tumors. Each experimental group contained 4 mice, each mouse bearing two tumors, on opposite flanks. There were four experimental groups (untreated, single agents, and the combination). Cultured tumor cells (4×10^6) were inoculated into flanks in the mid-axillary line. NO-Cbl was given twice daily (50 mg/kg s.c.) and recombinant trimeric Apo2L/TRAIL (50 mg/kg s.c.) was administered every other day, starting on day 2. Tumor volume was measured three times a week using the formula for a prolate spheroid: (4/3) πab^2 where 2a=major axis, 2b=minor axis. Formalin-fixed sections were processed by the Cleveland Clinic Histology Core. Sections were stained with hematoxylin and eosin and evaluated for pathologic changes in a blinded fashion.
# Anti-tumor effects of NO-Cbl, Apo2L/TRAIL, and the combination in vivo. To test drug activity in vivo, subcutaneous A375 xenografts were inoculated in nude mice. FIG. 2. illustrates the effect of NO-Cbl, Apo2L/TRAIL and the combination on the growth of A375 melanoma xenografts. NCR male athymic nude (nulnu) mice (n=4 per group) were injected subcutaneously with 4×10^6 A375 cells. Drug treatments began on day two (2) after injection of tumor cells. NO-Cbl was administered twice daily for the duration of the study. Apo2L/TRAIL was administered every other day. The control mice received phosphate buffered saline. The tumor volume was measured three times per week. Data points represent the mean tumor volume (in cubic mm)±SEM. Daily drug treatments began on day 2 following implantation, at which time tumors were both visible and palpable. Untreated control tumors grew unimpeded. After 25 days, the tumors from mice treated with NO-Cbl were 67.4% smaller than the control tumors (p≦0.0002) and tumors from mice treated with Apo2L/TRAIL were 89.4% smaller than the control tumors (p≦0.00001). The tumors from mice treated with the combination of NO-Cbl and Apo2L/TRAIL were 95.7% smaller than the control tumors (p≦0.000005).
# [1] = test system: human hematological and solid tumor cell lines; conditions: cited from earlier work
substance,measurement,setting,value
nitrosylcobalamin [NO-Cbl],tumor regression,"A375 melanoma xenografts; A375 xenografts, nude mice",Tumor regression was observed
same,tumors smaller than the control tumors,"A375 melanoma xenografts; after 25 days, NO-Cbl 50 mg/kg s.c. twice daily, Apo2L/TRAIL 50 mg/kg s.c. every other day, from day 2",67.4%
same,ID50 lower in tumor cell lines compared to benign cells (fibroblasts and endothelial cells),[1],5-100 fold
